# Like-named read-outs stand apart in the source and are kept apart here.
# Legend:
# KcsA tetramer [1] = biological target: T1, KcsA tetramer (Streptomyces lividans, UniProt P0A334); test: Tetramer protection titration of stabilizing cations against high temperature; assay type: binding; details: 100 mM choline Cl
# T1 sequence (P0A334 1-160): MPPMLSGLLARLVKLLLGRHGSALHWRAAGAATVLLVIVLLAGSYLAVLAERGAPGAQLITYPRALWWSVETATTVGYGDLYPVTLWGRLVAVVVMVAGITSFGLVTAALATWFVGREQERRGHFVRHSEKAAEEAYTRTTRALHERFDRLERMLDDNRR
# [2] = cited from earlier work; for Pauling crystal radii: ref Bezanilla and Armstrong, 1972, Armstrong, 2003
# KcsA tetramer [3] = biological target: T1, KcsA tetramer; test: Temperature dependence of KcsA tetramer monitored by SDS-PAGE; details: for effect on temperature dependence of KcsA tetramer: 5 mM MgCl2 or 5 mM CaCl2 added to 100 mM choline Cl; for thermal stability of KcsA tetramer: 100 mM KCl or 100 mM NaCl, heated 10 min at 60–99°C
# KcsA tetramer [4] = biological target: T1, KcsA tetramer; test: Time course of decay of KcsA tetramer at 90°C; assay type: binding
# KcsA tetramer [5] = biological target: T1, KcsA tetramer; assay type: binding
# [6] = values determined by Pauling, ref Hille (2001)
# [7] = K0.5 (cation concentration at half-maximal stabilization), fit to Eq. 1, heated 10 min at 90°C, 10 mM Hepes-Tris pH 7.4
compound,measurement,setting,value
"[Ba+2] [Ba^2+, BaCl2]",EC50,"KcsA tetramer [1]; K0.5 of tetramer protection titration, heated 10 min at 90°C",0.21 µM
same,Radius,[2]; [6],1.35 Å
"[Ca+2].[Cl-].[Cl-] [Ca^2+, CaCl2]",effect on temperature dependence of KcsA tetramer,KcsA tetramer [3],small protective effect at temperatures >60 °C
"[Cs+] [Cs^+, CsCl]",EC50,KcsA tetramer [1]; [7],4100 ± 3500 µM
same,Radius,[2]; [6],1.69 Å
"[K+] [K^+, KCl]",EC50,KcsA tetramer [1]; [7],1500 ± 2500 µM
same,time course of tetramer denaturation,"KcsA tetramer [4]; 0.1 mM K^+ added to 100 mM choline Cl, 90°C",complex slower biphasic decay
same,loss of tetramer,"KcsA tetramer [4]; 100 mM KCl, 30 min of incubation at 90°C",virtually no loss of tetramer
same,Pauling crystal radii,[2],1.33 Å
same,Radius,[2]; [6],1.33 Å
same,thermal stability of KcsA tetramer,KcsA tetramer [3],fully stable
"[Li+] [Li^+, LiCl]",IC50,KcsA tetramer [5],57000 µM
"[Cl-].[Cl-].[Mg+2] [Mg^2+, MgCl2]",effect on temperature dependence of KcsA tetramer,KcsA tetramer [3],destabilize KcsA at lower temperatures
"N [NH4 ^+, NH4Cl]",Radius,"[2]; estimated by a molecular graphics approach, ref Sun et al. (1997)",1.8 Å
"[Na+] [Na^+, NaCl]",Pauling crystal radii,[2],0.95 Å
same,thermal stability of KcsA tetramer,KcsA tetramer [3],progressively lost at temperatures >65 °C
"[Rb+] [Rb^+, RbCl]",EC50,KcsA tetramer [1]; [7],1700 ± 3300 µM
same,Radius,[2]; [6],1.48 Å
"[Sr+2] [Sr^2+, SrCl2]",EC50,"KcsA tetramer [1]; K0.5 of tetramer protection titration, heated 10 min at 85°C",11 µM
same,Radius,[2]; [6],1.13 Å
"[Tl+] [Tl^+, Tl acetate]",EC50,KcsA tetramer [1]; [7],1100 µM
same,Radius,[2]; [6],1.40 Å
"C[N+](C)(C)CCO.[Cl-] [choline^+, choline Cl]",time constant of single exponential decay of tetramer,"KcsA tetramer [4]; 100 mM choline Cl, absence of K^+, 90°C",16.5 s

# Reference: paper PMC2266582 (The Journal of General Physiology, 2005)
